Data from patent publication US12435046B2, “Alkynyl quinazoline compounds” (Black Diamond Therapeutics, Inc., priority 2019, dated 2025).
pIC50: −log10 of the molar value.

How the values were obtained:
GBM tumors = details: phase 2 study, GBM patients, erlotinib in combination with radiation and temozolomide; cited from earlier work
EGFR wt = molecular target: T1, EGFR wt (Homo sapiens, UniProt P00533); assay: BaF3 cell proliferation assay (CellTiterGlo), EGFR wt; assay type: cell-based; details: BaF3 cells, 3 days
T1 construct: expressed in transfected cells; host or cells: BaF3 (murine pro-B) cells, retroviral transduction with pMXs-IRES-Blasticidin
In short: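 BaF3 cells engineered by retroviral transduction to express EGFR and selected for blasticidin resistance and IL-3 independent growth were suspended at 1.3E5 c/ml in RPMI with 10% heat inactivated FBS, 2% L-glutamine and 1% Pen/Strep. They were plated in triplicate in 96 well plates and exposed to vehicle or varying drug concentrations for 3 days. Viability was quantified by CellTiterGlo ATP luminescence, normalized to vehicle, and curves fitted in PRISM.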

EGFR V3 = molecular target: T2, EGFR V3 (Homo sapiens, UniProt P00533, DELINS30-297G); assay: BaF3 cell proliferation assay (CellTiterGlo), EGFR V3; assay type: cell-based; details: BaF3 cells, 3 days
T2 construct: expressed in transfected cells; host or cells: BaF3 (murine pro-B) cells, retroviral transduction with pMXs-IRES-Blasticidin
In short: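 BaF3 cells made IL-3-independent by retroviral expression of each EGFR or HER2 mutant were treated in triplicate with compound for 72 h. Viability was read by CellTiterGlo ATP luminescence and normalised to vehicle, and EC50 was fitted from dose-response curves.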

EGFR SVD = molecular target: T3, EGFR SVD (Homo sapiens, UniProt P00533, INS770SVD); assay: BaF3 cell proliferation assay (CellTiterGlo), EGFR SVD; assay type: cell-based; details: Table A; BaF3 cells, 3 days
T3 construct: expressed in transfected cells; host or cells: BaF3 (murine pro-B) cells, retroviral transduction with pMXs-IRES-Blasticidin
Protocol: (§1) Retroviral Production: EGFR mutants were subcloned into pMXs-IRES-Blasticidin (RTV-016, Cell Biolabs, San Diego, CA). Retroviral expression vector retrovirus was produced by transient transfection of HEK 293T cells with the retroviral EGFR mutant expression vector pMXs-IRES-Blasticidin (RTV-016, Cell Biolabs), pCMV-Gag-Pol vector and pCMV-VSV-G-Envelope vector. Briefly, HEK 293T/17 cells were plated in 100 mm collagen coated plate (354450, Corning Life Sciences, Tewksbury, MA) (4×10^5 per plate) and incubated overnight. The next day, retroviral plasmids (3 ng of EGFR mutant, 1.0 ng of pCMV-Gag-Pol and 0.5 ng pCMV-VSV-G) were mixed in 500 n1 of Optimem (31985, Life Technologies). The mixture was incubated at room temperature for 5 min and then added to Optimem containing transfection reagent Lipofectamine (11668, Invitrogen) and incubated for 20 minutes. Mixture was then added dropwise to HEK 293T cells. The next day the medium was replaced with fresh culture medium and retrovirus was harvested @ 24 and 48 hrs.
(§2) Generation of EGFR mutant stable cell lines: BaF3 cells (1.5E5 cells) were infected with 1 ml of viral supernatant supplemented with 8 ng/ml polybrene by centrifuging for 30 min at 1000 rpm. Cells were placed in a 37° C. incubator overnight. Cells were then spun for 5 minutes to pellet the cells. Supernatant was removed and cells re-infected a fresh 1 ml of viral supernatant supplemented with 8 ng/ml polybrene by centrifuging for 30 min at 1000 rpm. Cells were placed in 37° C. incubator overnight. Cells were then maintained in RPMI containing 10% Heat Inactivated FBS, 2% L-glutamine containing 10 ng/ml IL-3. After 48 hours cells were selected for retroviral infection in 10 […] for one week. Blasticidin resistant populations were washed twice in phosphate buffered saline before plating in media lacking IL-3 to select for IL-3 independent growth.
(§3) Assay for cell proliferation: BaF3 cell lines were resuspended at 1.3E5 c/ml in RPMI containing 10% Heat Inactivated FBS, 2% L-glutamine and 1% Pen/Strep and dispensed in triplicate (17.5E4 c/well) into 96 well plates. To determine the effect of drug on cell proliferation, cells incubated for 3 days in the presence of vehicle control or test drug at varying concentrations. Inhibition of cell growth was determined by luminescent quantification of intracellular ATP content using CellTiterGlo (Promega), according to the protocol provided by the manufacturer. Comparison of cell number on day 0 versus 72 hours post drug treatment was used to plot dose-response curves. The number of viable cells was determined and normalized to vehicle-treated controls. Inhibition of proliferation, relative to vehicle-treated controls was expressed as a fraction of 1 and graphed using PRISM® software (Graphpad Software, San Diego, CA). EC50 values were determined with the same application.

EGFR NPH = molecular target: T4, EGFR NPH (Homo sapiens, UniProt P00533, INS773NPH); assay: BaF3 cell proliferation assay (CellTiterGlo), EGFR NPH; assay type: cell-based; details: Table A; BaF3 cells, 3 days
T4 construct: expressed in transfected cells; host or cells: BaF3 (murine pro-B) cells, retroviral transduction with pMXs-IRES-Blasticidin
Protocol: as §1, §2, §3

HER2 S310F = molecular target: T5, HER2 S310F (Homo sapiens, UniProt P04626, S310F); assay: BaF3 cell proliferation assay (CellTiterGlo), HER2 S310F; assay type: cell-based; details: Table A; BaF3 cells, 3 days
T5 construct: expressed in transfected cells; host or cells: BaF3 (murine pro-B) cells

HER2 YVMA = molecular target: T6, HER2 YVMA (Homo sapiens, UniProt P04626, INS775YVMA); assay: BaF3 cell proliferation assay (CellTiterGlo), HER2 YVMA; assay type: cell-based; details: Table A; BaF3 cells, 3 days
T6 construct: expressed in transfected cells; host or cells: BaF3 (murine pro-B) cells

EGFR V2 = molecular target: T7, EGFR V2 (Homo sapiens, UniProt P00533, DEL545-627); assay: BaF3 cell proliferation assay (CellTiterGlo), EGFR V2; assay type: cell-based; details: Table B; BaF3 cells, 3 days
T7 construct: expressed in transfected cells; host or cells: BaF3 (murine pro-B) cells, retroviral transduction with pMXs-IRES-Blasticidin
Protocol: as §1, with “The mixture was incubated at room temperature for 5 min and then added to Optimem containing transfection reagent Lipofectamine (11668, Invitrogen) and incubated for 20 minutes. Mixture was then added dropwise to HEK 293T cells. The next day the medium was replaced with fresh culture medium and retrovirus was harvested @ 24 and 48 hrs.” left out
as §3, with “To determine the effect of drug on cell proliferation, cells incubated for 3 days in the presence of vehicle control or test drug at varying concentrations.” left out, “Comparison of cell number on day 0 versus 72 hours post drug treatment was used to plot dose-response curves.” left out

EGFR V6 = molecular target: T8, EGFR V6 (Homo sapiens, UniProt P00533, DEL434-544); assay: BaF3 cell proliferation assay (CellTiterGlo), EGFR V6; assay type: cell-based; details: Table B; BaF3 cells, 3 days
T8 construct: expressed in transfected cells; host or cells: BaF3 (murine pro-B) cells, retroviral transduction with pMXs-IRES-Blasticidin
Protocol: as §1, with “The mixture was incubated at room temperature for 5 min and then added to Optimem containing transfection reagent Lipofectamine (11668, Invitrogen) and incubated for 20 minutes. Mixture was then added dropwise to HEK 293T cells. The next day the medium was replaced with fresh culture medium and retrovirus was harvested @ 24 and 48 hrs.” left out
as §3, with “To determine the effect of drug on cell proliferation, cells incubated for 3 days in the presence of vehicle control or test drug at varying concentrations.” left out, “Comparison of cell number on day 0 versus 72 hours post drug treatment was used to plot dose-response curves.” left out

EGFR A289V = molecular target: T9, EGFR A289V (Homo sapiens, UniProt P00533, A289V); assay: BaF3 cell proliferation assay (CellTiterGlo), EGFR A289V; assay type: cell-based; details: Table B; BaF3 cells, 3 days
T9 construct: expressed in transfected cells; host or cells: BaF3 (murine pro-B) cells, retroviral transduction with pMXs-IRES-Blasticidin
Protocol: as §1, with “The mixture was incubated at room temperature for 5 min and then added to Optimem containing transfection reagent Lipofectamine (11668, Invitrogen) and incubated for 20 minutes. Mixture was then added dropwise to HEK 293T cells. The next day the medium was replaced with fresh culture medium and retrovirus was harvested @ 24 and 48 hrs.” left out
as §3, with “To determine the effect of drug on cell proliferation, cells incubated for 3 days in the presence of vehicle control or test drug at varying concentrations.” left out, “Comparison of cell number on day 0 versus 72 hours post drug treatment was used to plot dose-response curves.” left out

EGFR G598V = molecular target: T10, EGFR G598V (Homo sapiens, UniProt P00533, G598V); assay: BaF3 cell proliferation assay (CellTiterGlo), EGFR G598V; assay type: cell-based; details: Table B; BaF3 cells, 3 days
T10 construct: expressed in transfected cells; host or cells: BaF3 (murine pro-B) cells, retroviral transduction with pMXs-IRES-Blasticidin
Protocol: as §1, with “The mixture was incubated at room temperature for 5 min and then added to Optimem containing transfection reagent Lipofectamine (11668, Invitrogen) and incubated for 20 minutes. Mixture was then added dropwise to HEK 293T cells. The next day the medium was replaced with fresh culture medium and retrovirus was harvested @ 24 and 48 hrs.” left out
as §3, with “To determine the effect of drug on cell proliferation, cells incubated for 3 days in the presence of vehicle control or test drug at varying concentrations.” left out, “Comparison of cell number on day 0 versus 72 hours post drug treatment was used to plot dose-response curves.” left out

T2 sequence (P00533 with tags, fused parts or gaps DELINS30-297G): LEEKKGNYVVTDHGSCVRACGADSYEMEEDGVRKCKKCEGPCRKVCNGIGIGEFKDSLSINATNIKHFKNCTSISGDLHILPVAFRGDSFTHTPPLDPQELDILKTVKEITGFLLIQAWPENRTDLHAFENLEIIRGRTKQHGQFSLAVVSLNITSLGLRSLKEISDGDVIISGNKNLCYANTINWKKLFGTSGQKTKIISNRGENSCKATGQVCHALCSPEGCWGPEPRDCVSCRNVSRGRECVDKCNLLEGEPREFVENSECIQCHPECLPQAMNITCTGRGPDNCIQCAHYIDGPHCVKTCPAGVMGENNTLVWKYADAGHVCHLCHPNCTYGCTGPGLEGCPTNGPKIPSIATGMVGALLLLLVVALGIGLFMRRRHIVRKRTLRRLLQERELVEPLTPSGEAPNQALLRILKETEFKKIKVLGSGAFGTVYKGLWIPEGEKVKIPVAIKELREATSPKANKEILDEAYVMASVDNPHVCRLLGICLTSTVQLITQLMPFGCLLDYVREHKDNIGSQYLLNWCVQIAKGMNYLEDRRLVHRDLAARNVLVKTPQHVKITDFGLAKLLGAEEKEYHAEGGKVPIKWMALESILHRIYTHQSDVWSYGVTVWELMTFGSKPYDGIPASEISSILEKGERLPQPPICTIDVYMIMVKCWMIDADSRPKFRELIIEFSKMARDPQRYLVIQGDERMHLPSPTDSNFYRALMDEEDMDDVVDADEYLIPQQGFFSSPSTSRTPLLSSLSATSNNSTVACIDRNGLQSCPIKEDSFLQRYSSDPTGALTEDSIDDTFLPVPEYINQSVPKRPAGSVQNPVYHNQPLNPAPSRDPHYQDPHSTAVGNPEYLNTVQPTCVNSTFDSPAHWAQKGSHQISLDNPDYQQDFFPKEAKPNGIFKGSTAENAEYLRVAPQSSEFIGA
T1 sequence (P00533 25-1210): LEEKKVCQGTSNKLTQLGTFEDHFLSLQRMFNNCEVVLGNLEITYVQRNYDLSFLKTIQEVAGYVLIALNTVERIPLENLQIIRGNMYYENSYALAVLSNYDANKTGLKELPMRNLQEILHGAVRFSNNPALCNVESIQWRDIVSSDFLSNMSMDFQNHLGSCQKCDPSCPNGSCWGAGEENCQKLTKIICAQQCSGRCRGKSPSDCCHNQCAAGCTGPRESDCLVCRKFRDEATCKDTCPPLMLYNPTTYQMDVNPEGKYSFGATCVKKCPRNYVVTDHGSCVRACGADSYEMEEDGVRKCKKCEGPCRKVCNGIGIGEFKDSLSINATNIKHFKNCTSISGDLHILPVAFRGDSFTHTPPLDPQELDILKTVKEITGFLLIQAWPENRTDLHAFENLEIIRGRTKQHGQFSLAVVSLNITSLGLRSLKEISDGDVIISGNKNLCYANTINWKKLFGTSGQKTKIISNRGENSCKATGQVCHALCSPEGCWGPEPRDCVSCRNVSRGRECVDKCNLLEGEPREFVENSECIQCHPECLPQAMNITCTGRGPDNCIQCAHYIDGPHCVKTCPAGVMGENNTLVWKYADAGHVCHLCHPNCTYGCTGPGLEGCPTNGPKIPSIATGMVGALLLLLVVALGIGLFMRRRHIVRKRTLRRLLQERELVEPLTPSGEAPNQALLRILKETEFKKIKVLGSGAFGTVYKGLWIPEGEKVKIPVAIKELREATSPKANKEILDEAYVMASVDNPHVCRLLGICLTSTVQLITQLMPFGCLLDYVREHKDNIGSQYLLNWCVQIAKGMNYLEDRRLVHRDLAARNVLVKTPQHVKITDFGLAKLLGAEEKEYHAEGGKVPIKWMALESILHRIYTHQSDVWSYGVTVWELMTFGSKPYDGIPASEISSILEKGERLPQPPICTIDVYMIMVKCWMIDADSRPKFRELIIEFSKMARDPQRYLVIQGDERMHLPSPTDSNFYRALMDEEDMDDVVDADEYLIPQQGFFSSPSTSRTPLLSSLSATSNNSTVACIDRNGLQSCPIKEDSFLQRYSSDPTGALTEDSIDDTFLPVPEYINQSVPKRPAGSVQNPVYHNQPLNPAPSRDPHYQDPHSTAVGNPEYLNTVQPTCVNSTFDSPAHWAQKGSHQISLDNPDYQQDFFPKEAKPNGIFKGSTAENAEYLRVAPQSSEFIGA
T6 sequence (P04626 with tags, fused parts or gaps INS775YVMA): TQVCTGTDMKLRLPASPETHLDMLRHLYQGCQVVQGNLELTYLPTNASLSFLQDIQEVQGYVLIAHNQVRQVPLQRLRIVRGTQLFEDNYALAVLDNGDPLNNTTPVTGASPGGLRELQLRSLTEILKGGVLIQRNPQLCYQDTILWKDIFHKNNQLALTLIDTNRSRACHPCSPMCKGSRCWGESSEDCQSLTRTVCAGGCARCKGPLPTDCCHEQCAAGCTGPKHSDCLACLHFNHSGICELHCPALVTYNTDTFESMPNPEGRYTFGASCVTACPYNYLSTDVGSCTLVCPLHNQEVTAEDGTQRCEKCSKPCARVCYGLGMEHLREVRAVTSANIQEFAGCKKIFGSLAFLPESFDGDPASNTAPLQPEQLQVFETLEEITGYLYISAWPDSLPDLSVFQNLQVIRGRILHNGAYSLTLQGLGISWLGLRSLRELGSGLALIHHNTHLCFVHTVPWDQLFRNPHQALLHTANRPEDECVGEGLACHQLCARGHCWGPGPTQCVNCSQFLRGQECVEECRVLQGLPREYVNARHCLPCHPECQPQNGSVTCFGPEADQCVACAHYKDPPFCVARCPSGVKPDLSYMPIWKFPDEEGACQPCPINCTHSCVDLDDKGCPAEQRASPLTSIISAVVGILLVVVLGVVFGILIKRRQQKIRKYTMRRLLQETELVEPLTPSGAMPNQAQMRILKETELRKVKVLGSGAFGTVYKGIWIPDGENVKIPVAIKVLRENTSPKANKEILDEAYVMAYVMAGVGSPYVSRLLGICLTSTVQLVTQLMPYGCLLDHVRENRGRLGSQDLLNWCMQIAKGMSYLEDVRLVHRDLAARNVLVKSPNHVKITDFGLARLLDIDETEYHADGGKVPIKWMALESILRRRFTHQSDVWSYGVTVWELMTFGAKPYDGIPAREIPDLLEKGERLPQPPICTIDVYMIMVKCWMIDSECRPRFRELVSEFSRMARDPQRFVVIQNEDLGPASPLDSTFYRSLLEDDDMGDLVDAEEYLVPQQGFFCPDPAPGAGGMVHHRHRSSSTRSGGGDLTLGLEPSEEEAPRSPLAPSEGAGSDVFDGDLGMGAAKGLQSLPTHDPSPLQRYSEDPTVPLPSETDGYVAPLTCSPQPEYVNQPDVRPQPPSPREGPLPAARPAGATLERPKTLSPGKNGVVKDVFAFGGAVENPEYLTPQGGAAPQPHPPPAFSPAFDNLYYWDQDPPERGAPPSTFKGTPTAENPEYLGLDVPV
T5 sequence (P04626 23-1255 S310F): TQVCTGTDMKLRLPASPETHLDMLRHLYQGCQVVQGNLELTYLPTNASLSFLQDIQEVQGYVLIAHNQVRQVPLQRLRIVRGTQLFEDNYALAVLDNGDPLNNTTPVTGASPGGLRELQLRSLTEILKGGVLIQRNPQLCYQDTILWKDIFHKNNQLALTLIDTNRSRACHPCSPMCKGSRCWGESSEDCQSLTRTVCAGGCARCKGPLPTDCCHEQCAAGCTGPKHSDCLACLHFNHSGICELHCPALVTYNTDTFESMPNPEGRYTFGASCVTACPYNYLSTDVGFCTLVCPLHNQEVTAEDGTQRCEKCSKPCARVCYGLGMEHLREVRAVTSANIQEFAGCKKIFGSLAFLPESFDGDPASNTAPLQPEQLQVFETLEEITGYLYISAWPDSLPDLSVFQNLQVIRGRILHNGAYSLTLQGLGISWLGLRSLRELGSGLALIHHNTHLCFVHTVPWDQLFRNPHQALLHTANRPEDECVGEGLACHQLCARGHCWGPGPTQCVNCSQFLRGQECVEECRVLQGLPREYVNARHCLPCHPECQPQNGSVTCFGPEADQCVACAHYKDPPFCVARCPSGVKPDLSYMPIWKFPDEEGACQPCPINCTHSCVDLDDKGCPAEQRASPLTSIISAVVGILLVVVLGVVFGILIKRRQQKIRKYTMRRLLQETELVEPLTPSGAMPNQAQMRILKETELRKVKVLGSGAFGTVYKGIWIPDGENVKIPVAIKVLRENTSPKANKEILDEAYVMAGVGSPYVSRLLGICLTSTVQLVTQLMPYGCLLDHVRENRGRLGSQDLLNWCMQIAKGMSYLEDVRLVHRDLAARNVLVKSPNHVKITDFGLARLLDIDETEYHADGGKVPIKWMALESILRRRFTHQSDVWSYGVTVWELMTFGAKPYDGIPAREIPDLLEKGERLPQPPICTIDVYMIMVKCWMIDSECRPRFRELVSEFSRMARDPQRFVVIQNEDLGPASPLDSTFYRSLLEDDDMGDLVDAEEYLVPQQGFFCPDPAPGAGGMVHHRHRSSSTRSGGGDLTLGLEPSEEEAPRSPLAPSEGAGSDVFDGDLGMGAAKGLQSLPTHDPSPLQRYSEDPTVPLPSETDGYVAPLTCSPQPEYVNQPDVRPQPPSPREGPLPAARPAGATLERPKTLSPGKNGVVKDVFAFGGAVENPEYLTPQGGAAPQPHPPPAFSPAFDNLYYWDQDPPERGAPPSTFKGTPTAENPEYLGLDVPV

| pIC50 (EGFR wt; Table A) | pIC50 (EGFR V3; Table A) | pIC50 (EGFR SVD) | pIC50 (EGFR NPH) | pIC50 (HER2 S310F) | pIC50 (HER2 YVMA) | pIC50 (EGFR wt; Table B) | pIC50 (EGFR V3; Table B) | pIC50 (EGFR V2) | pIC50 (EGFR V6) | pIC50 (EGFR A289V) | pIC50 (EGFR G598V) | SMILES | median OS (mOS) (GBM tumors) [months] | median PFS (mPFS) (GBM tumors) [months] |
| --- | --- | --- | --- | --- | --- | --- | --- | --- | --- | --- | --- | --- | --- | --- |
|  |  |  |  |  |  |  |  |  |  |  |  | C#Cc1cccc(Nc2ncnc3cc(OCCOC)c(OCCOC)cc23)c1 [erlotinib] | 8.6 | 2.8 |
| 7.00 to 7.30 | ≥ 7.30 | 6.30 to 7.00 | 7.00 to 7.30 | 7.00 to 7.30 | 6.30 to 7.00 |  |  |  |  |  |  | C=CC(=O)Nc1cc2c(Nc3cccc(Cl)c3F)ncnc2cc1C#CC1(C)CCN(C)C1 (stereo not drawn) [Compound 1, N-(4-((3-chloro-2-fluorophenyl)amino)-7-((1,3-dimethylpyrrolidin-3-yl)ethynyl)quinazolin-6-yl)acrylamide] |  |  |
| ≥ 7.30 | ≥ 7.30 |  |  | 6.30 to 7.00 | 6.30 to 7.00 | 7.30 to 7.60 | 7.60 to 8.00 | ≥ 8.00 | ≥ 8.00 | ≥ 8.00 | ≥ 8.00 | CN1C[C@H]2C[C@@]2(C#Cc2cc3ncnc(Nc4cccc(Cl)c4F)c3cc2NC(=O)/C=C/CN2CCOCC2)C1 [Compound 37, (E)-N-(4-((3-chloro-2-fluorophenyl)amino)-7-(((1R,5S)-3-methyl-3-azabicyclo[3.1.0]hexan-1-yl)ethynyl)quinazolin-6-yl)-4-morpholinobut-2-enamide] |  |  |
| 6.30 to 7.00 | ≥ 7.30 | 6.30 to 7.00 | 7.00 to 7.30 | 7.00 to 7.30 | 6.30 to 7.00 |  |  |  |  |  |  | C=CC(=O)Nc1cc2c(Nc3cccc(Cl)c3F)ncnc2cc1C#C[C@@]1(C)CCN(C)C1 [Compound 2, (R)—N-(4-((3-chloro-2-fluorophenyl)amino)-7-((1,3-dimethylpyrrolidin-3-yl)ethynyl)quinazolin-6-yl)acrylamide] |  |  |
